Source: patent publication US5554637A, “Use of leflunomide for inhibiting interleukin 1 alpha” (priority 1993, dated 1996)
“Also recorded” adds a separate entry of the source.

Assays:
cytokines = test: synthesis and liberation of cytokines from human blood cells; format: cell-based; conditions: in words
Method: The cell fraction which was visible as a white ring at the phase boundary was withdrawn with the aid of a syringe, diluted 1:1 (v/v) with PM-16 buffer (from Serva Feinbiochemica GmbH & Co. KG, Heidelberg) and then centrifuged, as above, for 10 min. […] Using a cell counter (type IT, from Coulter Diagnostics, Krefeld), the cell suspension, which is composed of about 90% lymphocytes and 10% monocytes, was adjusted to about 5 million cells/mi. Cell viability was monitored before and after the inhibition experiments using the known lactate dehydrogenase method.
At the same time, a solution of leflunomide or leflunomide metabolite in 0.01 ml of dimethylsulfoxide (for the final concentration in each case, see Tab. 1) was added to the cell fraction and the mixture was left at 37° C. for 20 h in a commercially available incubator. […] The control values were determined without the addition of leflunomide or its metabolites and set at 100%.

IL1alpha = IL1alpha synthesis and liberation in lipopolysaccharide-stimulated mononuclear cells from human blood (sandwich enzyme immuno test); format: cell-based; conditions: for activity at 10 µM: concentration 0.01 mmol/l; for activity at 100 µM: concentration 0.1 mmol/l; for effect on the IL1alpha level: summary in words of Table 1
Method: The mononuclear cells from freshly isolated human citrate blood were enriched in accordance with known standard procedures (see Tiku et al., J. Immunol. 136/10 (1986) 3677):
10 ml of freshly prepared human citrate blood were carefully underlaid with 15 ml of Lynnphoprep^(R) (Molter GmbH, Heidelberg) and then centrifuged at 400 ×g for 40 min. at 20° C. The cell fraction which was visible as a white ring at the phase boundary was withdrawn with the aid of a syringe, diluted 1:1 (v/v) with PM-16 buffer (from Serva Feinbiochemica GmbH & Co. KG, Heidelberg) and then centrifuged, as above, for 10 min. The supernatant was washed with 10 ml of RPMI 1640 buffer (Gibco, Berlin) to which 300 mg/1 L-glutamine had previously been added. The washed cell fraction was taken up in 1 ml of RPMI 1640 to which 300 mg/1 L-glutamine, 25 mmol/1 HEPES (Gibco, Berlin), […] streptomycin and […] penicillin had previously been added. Using a cell counter (type IT, from Coulter Diagnostics, Krefeld), the cell suspension, which is composed of about 90% lymphocytes and 10% monocytes, was adjusted to about 5 million cells/mi. Cell viability was monitored before and after the inhibition experiments using the known lactate dehydrogenase method. In this case, no change in viability was observed.
The synthesis and liberation of cellular IL1alpha was induced by adding a solution of 500 ng of lipopolysaccharide (Salmonella abortus equi, Sigma GmbH, Deisenhofen) in 0.01 ml of dimethyl sulfoxide/water (1:10, v/v) to 0.48 ml of the above-described cell fraction. At the same time, a solution of leflunomide or leflunomide metabolite in 0.01 ml of dimethylsulfoxide (for the final concentration in each case, see Tab. 1) was added to the cell fraction and the mixture was left at 37° C. for 20 h in a commercially available incubator. After cooling down to 0° C., the samples were centrifuged for 1 min. in a bench centrifuge and in each case 0.025 ml aliquots of the supernatant were examined for their IL1alpha content using a "sandwich" enzyme immuno test kit (from Biermann GmbH, Bad Nauheim) in accordance with the manufacturer's instructions. The control values were determined without the addition of leflunomide or its metabolites and set at 100%. In particular, any possible influence of dimethyl sulfoxide on the IL1alpha level was excluded by appropriate comparative measurements.

mononuclear cells = test: metabolism of leflunomide under the conditions of the cell experiment (HPLC); format: in vitro ADME, human; conditions: in words; isolated human mononuclear cells
[1] = as above; format: in vitro ADME, human; conditions: human, mononuclear cells; mononuclear cell fraction, incubation conditions of Example 1, HPLC
[2] = Homo sapiens, control without substance = 100%, LPS 500 ng, 37° C., 20 h, read-out: IL1alpha in the supernatant, % +/- standard deviation

Structure (SMILES) | effect on the synthesis and liberation of cytokines from human blood cells (cytokines) | activity at 10 µM (IL1alpha; [2]) | activity at 100 µM (IL1alpha; [2]) | effect on the IL1alpha level (IL1alpha) | activity at 0.1 µM (IL1alpha; Homo sapiens, concentration 0.0001 mmol/l, control without substance = 100%, LPS 500 ng, 37° C., 20 h, read-out: IL1alpha in the supernatant, % +/- standard deviation) | activity at 5 µM (IL1alpha; Homo sapiens, concentration 0.005 mmol/l, control without substance = 100%, LPS 500 ng, 37° C., 20 h, read-out: IL1alpha in the supernatant, % +/- standard deviation) | activity at 50 µM (IL1alpha; Homo sapiens, concentration 0.05 mmol/l, control without substance = 100%, LPS 500 ng, 37° C., 20 h, read-out: IL1alpha in the supernatant, % +/- standard deviation) | metabolism of leflunomide under the experimental conditions (mononuclear cells) | half-life [1]
C/C(O)=C(\C#N)C(=O)Nc1ccc(C(F)(F)F)cc1 [Leflunomide metabolite, N-(4-trifluoromethylphenyl)-2-cyano-3-hydroxycrotonamide] | does not exhibit this advantageous effect | 100 ± 5% | 98 ± 7% | practically no effect on the IL1alpha level | – | – | – | – | –
Cc1oncc1C(=O)Nc1ccc(C(F)(F)F)cc1 [Leflunomide, N-(4-trifluoromethylphenyl)-5-methylisoxazole-4-carboxamide] | strong inhibitory effect | 54 ± 5% | 22 ± 5% | clearly lowered | 83 ± 16% | 62% | 22 ± 2% | did not, to any appreciable extent, metabolize the leflunomide to its metabolites; also recorded: metabolized only very slowly; also recorded: no appreciable metabolism | ~10 h
